Source: patent US20250188143A1, “COMBINED GENE AND RADIO THERAPY FOR THE TREATMENT OF CANCER” (FUNDACION PARA LA INVESTIGACION MEDICA APLICADA, priority 2022, published 2025)
Where two headings read alike, the source gives them in different places.

Columns and labels:
MC38 cells [1] = assay: Synergism proof of principle I, IFN-β mRNA; assay type: cell-based, murine
Protocol: To this end, MC38 cells received 8 Gy or 0 Gy as described above (example 7). Cells were seeded thereafter at 750 cells/mm^2 density and were then either mock-transduced or transduced with AAV8-hSTINGmut (1×10^5 viral genomes/cell). For cell transduction 8.5×10^9 viral genomes of AAV8-hSTINGmut from known concentration stock solutions, were resuspended in 50 μl RPMI 2% FBS. The resuspended viral particles were then added to the wells where the cells were seeded.

STING = tested on: STING
Protocol: C57 wild type mice, aged 6 to 10 weeks, were injected intravenously with an AAV8 vector encoding either hSTINGmut (AAV8-hSTINGmut, 1×10^11 viral genomes) or as a control GFP (AAV8-GFP, 1.5×10^11 viral genomes).

HEK293 cells = assay: Synergism proof of principle III, IFN-β and IL-12 mRNA; assay type: cell-based, human; details: for IFN-β expression levels: hSTINGmut expressing HEK293 cells
Protocol: The IFN-β and the IL-12 mRNA expression levels were determined by qPCR as described above (example 1) and expression levels were quantified in reference to the indicated controls.

hSTINGmut [2] = target: T1, hSTINGmut (Homo sapiens, UniProt Q86WV6, G230I/H232R/Q266I/S162A); assay: DMXAA mediated expression of STING-derived cytokines (qPCR); assay type: cell-based; details: hSTINGmut-transduced MC38 and Hep2G cells; 50 μg/mL DMXAA, 3 h or 6 h
T1 construct: expressed in transfected cells
T1 sequence (Q86WV6 whole entry S162A/G230I/H232R/Q266I): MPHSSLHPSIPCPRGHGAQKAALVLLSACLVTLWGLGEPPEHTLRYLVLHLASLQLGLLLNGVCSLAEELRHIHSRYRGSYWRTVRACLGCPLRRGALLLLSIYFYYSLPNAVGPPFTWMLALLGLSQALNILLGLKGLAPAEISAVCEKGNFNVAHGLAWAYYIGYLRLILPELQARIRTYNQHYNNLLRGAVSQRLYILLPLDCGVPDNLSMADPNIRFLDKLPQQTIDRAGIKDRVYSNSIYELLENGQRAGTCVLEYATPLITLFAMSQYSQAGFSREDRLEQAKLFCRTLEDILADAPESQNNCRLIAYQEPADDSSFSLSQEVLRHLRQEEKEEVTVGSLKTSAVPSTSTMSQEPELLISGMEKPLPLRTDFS
Protocol: (§1) As a readout, the expression of STING-derived cytokines was measured by qPCR.
(§2) To this end, MC38 and Hep2G cells have been transduced with lentiviruses encoding luciferase, hSTINGwt, hSTINGmut to obtain stable cell lines as described above or were not transduced with any lentivirus (no vector). Respective cells were seeded in 24-well plates at a density of 750 cells/mm^2 in growth medium. […] Cells were harvested and prepared for qPCR measurements as described above. The expression of the cytokines IFN-β, TNF-α, IL-6, CXCL9 and CXCL10 were measured for either experimental group and expression levels relative to controls (no vector) were quantified.

hSTINGwt = target: T2, hSTINGwt (Homo sapiens, UniProt Q86WV6, H232R); assay: as above; assay type: cell-based; details: other groups (luciferase, hSTINGwt, no vector); 50 μg/mL DMXAA
T2 construct: expressed in transfected cells
T2 sequence (Q86WV6 whole entry H232R): as the sequence (Q86WV6 whole entry S162A/G230I/H232R/Q266I) above, with A162S, I230G, I266Q counted along it
Protocol: as §1, §2

established tumors = details: intratumor injections; STING-dependent; cited from earlier work
[3] = target: hSTING[R]-S162A/G230I/Q266I (Homo sapiens, UniProt Q86WV6, G230I/H232R/Q266I/S162A); details: cited from earlier work
Sequence of hSTING[R]-S162A/G230I/Q266I (Q86WV6 whole entry S162A/G230I/H232R/Q266I): as the sequence (Q86WV6 whole entry S162A/G230I/H232R/Q266I) above

[4] = tested on: native non-transduced MC38 cells; assay: Synergism proof of principle IV, IFN-β protein; assay type: cell-based, murine
Description: To this end, native non-transduced MC38 cells received 0 Gy, 2 Gy or 8 Gy as described above.

hSTINGmut [5] = target: T1, hSTINGmut; assay: Time-course expression of STING-derived cytokines upon DMXAA treatment; assay type: cell-based; details: MC38 and Hep2G cells encoding hSTINGmut; 50 μg/mL DMXAA; any given timepoint
Protocol: The objective of this experiment was to examine the time-course of STING-derived cytokine expression upon DMXAA treatment. As a readout, the expression of STING-derived cytokines was measured by qPCR.
To this end, stable cell lines of MC38 and Hep2G cells encoding hSTINGmut have been obtained as described above. […] Cells were harvested and prepared for qPCR measurements as described above.

MC38 tumors = assay: Synergism of DMXAA and radiotherapy in a humanized mouse model in vivo, cytokine levels; parameters: species or system STING KO mice; details: tumor extracts 6 h after DMXAA 20 mg/kg; irradiated
MC38 cells [6] = assay: Synergism proof of principle II, IL-12 mRNA; assay type: cell-based, murine; details: cells transduced with AAV8-hSTINGmut plus AAV8-ISREx4-IL12miR122T
Protocol: […] The resuspended viral particles were then added to the wells where the cells were seeded. […] The IL-12 mRNA was determined by qPCR as described above (example 3) and expression levels were quantified in reference to non-transduced, non-irradiated cells treated with vehicle.

human STING = human STING (Homo sapiens, UniProt Q86WV6, H232R); details: cited from earlier work
Sequence of human STING (Q86WV6 whole entry H232R): as the sequence (Q86WV6 whole entry S162A/G230I/H232R/Q266I) above, with A162S, I230G, I266Q counted along it

[7] = human, in vivo; cited from earlier work
[8] = 5 or 10 mg DMXAA/kg, AAV8-hSTINGmut transduced mice

Cc1ccc2c(=O)c3cccc(CC(=O)O)c3oc2c1C [DMXAA, 5,6-Dimethylxanthenone-4-acetic acid]
IFN-β mRNA expression (MC38 cells [1]; hSTINGmut-transduced MC38, 8 Gy, DMXAA 50 μg/mL 6 h): further increased
IFN-β mRNA expression (MC38 cells [1]; hSTINGmut-transduced MC38, no irradiation, DMXAA): intermediate expression
IFN-β mRNA expression (MC38 cells [1]; non-transduced MC38, 8 Gy, DMXAA 50 μg/mL 6 h): increase in IFN-β expression
IFN-β levels in serum (STING; 20 mg DMXAA/kg i.p., AAV8-GFP transduced control animals, 3 h after injection): elevation of IFN-β levels
toxicity and mortality (STING; 20 mg DMXAA/kg repeated, AAV8-GFP and AAV8-hSTINGmut mice (systemic STING stimulation)): high toxicity and mortality
IFN-β levels in serum (STING; [8]): only very low levels
toxicity and mortality (STING; [8]): neither cause significant toxicity nor mortality
IL-12 expression levels (HEK293 cells; HEK293 cells expressing ISREx4-IL12miR122T, radiation and further DMXAA treatment): significant increase in IL-12 expression levels
IFN-β expression levels (HEK293 cells; DMXAA 50 μg/mL): upregulated
IFN-β expression levels (HEK293 cells; DMXAA plus additional irradiation 8 Gy): significantly increased
expression of cytokines IFN-β, TNF-α, IL-6, CXCL9 and CXCL10 (hSTINGmut [2]): elevated
expression of cytokines IFN-β, TNF-α, IL-6, CXCL9 and CXCL10 (hSTINGwt): no significant alteration
CD8+ T cell priming and tumor elimination (established tumors): effectively prime CD8+ T cell responses and promote elimination of the established tumors
activation of hSTING[R]-S162A/G230I/Q266I [3]: highly activated
IFN-β production (ELISA) ([4]; 8 Gy plus DMXAA at different doses, 24 h or 48 h): exceeding the sum of those obtained with radiation alone and DMXAA alone
IFN-β production (ELISA) ([4]; single dose 8 Gy, DMXAA 50 μg/mL 24 h later, collected after another 24 h): enhanced
time-course of STING-derived cytokine expression (hSTINGmut [5]): increase in expression levels
intratumor levels of IL-12 (MC38 tumors): increased significantly
IL-12 mRNA levels (MC38 cells [6]; irradiated with 8 Gy): strong elevation
IL-12 mRNA levels (MC38 cells [6]; non-irradiated): slight elevation
activation of human STING (human STING): unable to activate
efficacy in clinical trials [7]: lack of efficacy
tolerability in clinical trials [7]: well tolerated and only displayed minor side effects
